Laboratory results as given in BindingDB's records for doi:10.1016/j.bmcl.2004.08.039 (Glaxosmithkline, 2004).

Target: T1, Dimer of Gag-Pol polyprotein [501-599,Q508K,L534I,L564I,C568A,C596A] (Human immunodeficiency virus 1, UniProt P03367, C568A/C596A/L534I/L564I/Q508K)
T1 construct: 501-599
Assay: Protease Inhibition Assay
Conditions: pH 6.4; 25 °C
Procedure: The Ki values were determined using fluorogenic substrate, 2-(aminobenzoyl)-Thr-Ile-Nle-Phe(p-NO2)-Gln-ArgNH2. A standard curve relating changes in fluorescent intensity to changes in concentration of product was used to convert fluorescent changes into molar velocities. The amount of cleavage was determined by HPLC.

SMILES | Ki [nM]
NC(=O)c1cccc(C[C@H]2C[C@H](Cc3ccccc3)N(C[C@@H](O)C[C@@H](Cc3ccc(OCCO)cc3)C(=O)N[C@H]3c4ccccc4C[C@H]3O)C2=O)c1 [3-{[(3S,5R)-5-benzyl-1-[(2S,4R)-2-hydroxy-4-{[(1S,2R)-2-hydroxy-2,3-dihydro-1H-inden-1-yl]carbamoyl}-4-{[4-(2-hydroxyethoxy)phenyl]methyl}butyl]-2-oxopyrrolidin-3-yl]methyl}benzamide] | 0.05
O=C(NCCOCCO)c1cccc(C[C@H]2C[C@H](Cc3ccccc3)N(C[C@@H](O)C[C@@H](Cc3ccccc3)C(=O)N[C@H]3c4ccccc4C[C@H]3O)C2=O)c1 [3-{[(3S,5R)-5-benzyl-1-[(2S,4R)-4-benzyl-2-hydroxy-4-{[(1S,2R)-2-hydroxy-2,3-dihydro-1H-inden-1-yl]carbamoyl}butyl]-2-oxopyrrolidin-3-yl]methyl}-N-[2-(2-hydroxyethoxy)ethyl]benzamide] | 0.24
O=C(NCCN1CCOCC1)c1cccc(C[C@H]2C[C@H](Cc3ccccc3)N(C[C@@H](O)C[C@@H](Cc3ccccc3)C(=O)N[C@H]3c4ccccc4C[C@H]3O)C2=O)c1 [3-{[(3S,5R)-5-benzyl-1-[(2S,4R)-4-benzyl-2-hydroxy-4-{[(1S,2R)-2-hydroxy-2,3-dihydro-1H-inden-1-yl]carbamoyl}butyl]-2-oxopyrrolidin-3-yl]methyl}-N-[2-(morpholin-4-yl)ethyl]benzamide] | 0.15
NC(=O)c1cccc(C[C@H]2C[C@H](Cc3ccccc3)N(C[C@@H](O)C[C@@H](Cc3ccccc3)C(=O)N[C@H]3c4ccccc4C[C@H]3O)C2=O)c1 [3-{[(3S,5R)-5-benzyl-1-[(2S,4R)-4-benzyl-2-hydroxy-4-{[(1S,2R)-2-hydroxy-2,3-dihydro-1H-inden-1-yl]carbamoyl}butyl]-2-oxopyrrolidin-3-yl]methyl}benzamide] | 0.1
CCNC(=O)Nc1cccc(C[C@H]2C[C@H](Cc3ccccc3)N(C[C@@H](O)C[C@@H](Cc3ccccc3)C(=O)N[C@H]3c4ccccc4C[C@H]3O)C2=O)c1 [(2R,4S)-2-benzyl-5-[(3S,5R)-5-benzyl-3-({3-[(ethylcarbamoyl)amino]phenyl}methyl)-2-oxopyrrolidin-1-yl]-4-hydroxy-N-[(1S,2R)-2-hydroxy-2,3-dihydro-1H-inden-1-yl]pentanamide] | 0.2
N#Cc1cccc(C[C@H]2C[C@H](Cc3ccccc3)N(C[C@@H](O)C[C@@H](Cc3ccccc3)C(=O)N[C@H]3c4ccccc4C[C@H]3O)C2=O)c1 [(2R,4S)-2-benzyl-5-[(3S,5R)-5-benzyl-3-[(3-cyanophenyl)methyl]-2-oxopyrrolidin-1-yl]-4-hydroxy-N-[(1S,2R)-2-hydroxy-2,3-dihydro-1H-inden-1-yl]pentanamide] | 0.05
O=C(N[C@H]1c2ccccc2C[C@H]1O)[C@H](Cc1ccccc1)C[C@H](O)CN1C(=O)[C@@H](Cc2cccc(O)c2)C[C@@H]1Cc1ccccc1 [(2R,4S)-2-benzyl-5-[(3S,5R)-5-benzyl-3-[(3-hydroxyphenyl)methyl]-2-oxopyrrolidin-1-yl]-4-hydroxy-N-[(1S,2R)-2-hydroxy-2,3-dihydro-1H-inden-1-yl]pentanamide] | 0.05
NC(=O)COc1cccc(C[C@H]2C[C@H](Cc3ccccc3)N(C[C@@H](O)C[C@@H](Cc3ccccc3)C(=O)N[C@H]3c4ccccc4C[C@H]3O)C2=O)c1 [(2R,4S)-2-benzyl-5-[(3S,5R)-5-benzyl-3-{[3-(carbamoylmethoxy)phenyl]methyl}-2-oxopyrrolidin-1-yl]-4-hydroxy-N-[(1S,2R)-2-hydroxy-2,3-dihydro-1H-inden-1-yl]pentanamide] | 0.09
N#CCOc1cccc(C[C@H]2C[C@H](Cc3ccccc3)N(C[C@@H](O)C[C@@H](Cc3ccccc3)C(=O)N[C@H]3c4ccccc4C[C@H]3O)C2=O)c1 [(2R,4S)-2-benzyl-5-[(3S,5R)-5-benzyl-3-{[3-(cyanomethoxy)phenyl]methyl}-2-oxopyrrolidin-1-yl]-4-hydroxy-N-[(1S,2R)-2-hydroxy-2,3-dihydro-1H-inden-1-yl]pentanamide] | 0.08
O=C(N[C@H]1c2ccccc2C[C@H]1O)[C@H](Cc1ccccc1)C[C@H](O)CN1C(=O)C(Cc2ccncc2)C[C@@H]1Cc1ccccc1 (stereo partly drawn) [(2R,4S)-2-benzyl-5-[(5R)-5-benzyl-2-oxo-3-(pyridin-4-ylmethyl)pyrrolidin-1-yl]-4-hydroxy-N-[(1S,2R)-2-hydroxy-2,3-dihydro-1H-inden-1-yl]pentanamide] | 0.31
N#Cc1ccc(CC2C[C@H](Cc3ccccc3)N(C[C@@H](O)C[C@@H](Cc3ccccc3)C(=O)N[C@H]3c4ccccc4C[C@H]3O)C2=O)cc1 (stereo partly drawn) [(2R,4S)-2-benzyl-5-[(5R)-5-benzyl-3-[(4-cyanophenyl)methyl]-2-oxopyrrolidin-1-yl]-4-hydroxy-N-[(1S,2R)-2-hydroxy-2,3-dihydro-1H-inden-1-yl]pentanamide] | 0.34
Nc1cccc(C[C@H]2C[C@H](Cc3ccccc3)N(C[C@@H](O)C[C@@H](Cc3ccccc3)C(=O)N[C@H]3c4ccccc4C[C@H]3O)C2=O)c1 [(2R,4S)-5-[(3S,5R)-3-[(3-aminophenyl)methyl]-5-benzyl-2-oxopyrrolidin-1-yl]-2-benzyl-4-hydroxy-N-[(1S,2R)-2-hydroxy-2,3-dihydro-1H-inden-1-yl]pentanamide] | 0.1
Nc1ccc(CC2C[C@H](Cc3ccccc3)N(C[C@@H](O)C[C@@H](Cc3ccccc3)C(=O)N[C@H]3c4ccccc4C[C@H]3O)C2=O)cc1 (stereo partly drawn) [(2R,4S)-5-[(5R)-3-[(4-aminophenyl)methyl]-5-benzyl-2-oxopyrrolidin-1-yl]-2-benzyl-4-hydroxy-N-[(1S,2R)-2-hydroxy-2,3-dihydro-1H-inden-1-yl]pentanamide] | 2.3
CCOC(=O)CNC(=O)Nc1cccc(C[C@H]2C[C@H](Cc3ccccc3)N(C[C@@H](O)C[C@@H](Cc3ccccc3)C(=O)N[C@H]3c4ccccc4C[C@H]3O)C2=O)c1 [ethyl 2-{[(3-{[(3S,5R)-5-benzyl-1-[(2S,4R)-4-benzyl-2-hydroxy-4-{[(1S,2R)-2-hydroxy-2,3-dihydro-1H-inden-1-yl]carbamoyl}butyl]-2-oxopyrrolidin-3-yl]methyl}phenyl)carbamoyl]amino}acetate] | 0.1
COC(=O)c1cccc(C[C@H]2C[C@H](Cc3ccccc3)N(C[C@@H](O)C[C@@H](Cc3ccccc3)C(=O)N[C@H]3c4ccccc4C[C@H]3O)C2=O)c1 [methyl 3-{[(3S,5R)-5-benzyl-1-[(2S,4R)-4-benzyl-2-hydroxy-4-{[(1S,2R)-2-hydroxy-2,3-dihydro-1H-inden-1-yl]carbamoyl}butyl]-2-oxopyrrolidin-3-yl]methyl}benzoate] | 0.42
